Experimental data published in publication PMC12735773, “Toward Brain NaV1.8 Imaging with [^11C]Suzetrigine” (Pharmaceuticals, 2025).

Tests used:
NaV1.8 [1] = target: T1, NaV1.8 (Rattus norvegicus, UniProt Q62968); experiment: competition autoradiography, displacement of [^11C]suzetrigine on rat brain sections; details: read-out: % reduction of binding at 2 μM
T1 construct: gene Scn10a; native protein in rat brain sections

NaV1.8 [2] = target: T1, NaV1.8; experiment: radioligand saturation binding autoradiography on rat brain sections, with homologous block

T1 sequence (Q62968 whole entry): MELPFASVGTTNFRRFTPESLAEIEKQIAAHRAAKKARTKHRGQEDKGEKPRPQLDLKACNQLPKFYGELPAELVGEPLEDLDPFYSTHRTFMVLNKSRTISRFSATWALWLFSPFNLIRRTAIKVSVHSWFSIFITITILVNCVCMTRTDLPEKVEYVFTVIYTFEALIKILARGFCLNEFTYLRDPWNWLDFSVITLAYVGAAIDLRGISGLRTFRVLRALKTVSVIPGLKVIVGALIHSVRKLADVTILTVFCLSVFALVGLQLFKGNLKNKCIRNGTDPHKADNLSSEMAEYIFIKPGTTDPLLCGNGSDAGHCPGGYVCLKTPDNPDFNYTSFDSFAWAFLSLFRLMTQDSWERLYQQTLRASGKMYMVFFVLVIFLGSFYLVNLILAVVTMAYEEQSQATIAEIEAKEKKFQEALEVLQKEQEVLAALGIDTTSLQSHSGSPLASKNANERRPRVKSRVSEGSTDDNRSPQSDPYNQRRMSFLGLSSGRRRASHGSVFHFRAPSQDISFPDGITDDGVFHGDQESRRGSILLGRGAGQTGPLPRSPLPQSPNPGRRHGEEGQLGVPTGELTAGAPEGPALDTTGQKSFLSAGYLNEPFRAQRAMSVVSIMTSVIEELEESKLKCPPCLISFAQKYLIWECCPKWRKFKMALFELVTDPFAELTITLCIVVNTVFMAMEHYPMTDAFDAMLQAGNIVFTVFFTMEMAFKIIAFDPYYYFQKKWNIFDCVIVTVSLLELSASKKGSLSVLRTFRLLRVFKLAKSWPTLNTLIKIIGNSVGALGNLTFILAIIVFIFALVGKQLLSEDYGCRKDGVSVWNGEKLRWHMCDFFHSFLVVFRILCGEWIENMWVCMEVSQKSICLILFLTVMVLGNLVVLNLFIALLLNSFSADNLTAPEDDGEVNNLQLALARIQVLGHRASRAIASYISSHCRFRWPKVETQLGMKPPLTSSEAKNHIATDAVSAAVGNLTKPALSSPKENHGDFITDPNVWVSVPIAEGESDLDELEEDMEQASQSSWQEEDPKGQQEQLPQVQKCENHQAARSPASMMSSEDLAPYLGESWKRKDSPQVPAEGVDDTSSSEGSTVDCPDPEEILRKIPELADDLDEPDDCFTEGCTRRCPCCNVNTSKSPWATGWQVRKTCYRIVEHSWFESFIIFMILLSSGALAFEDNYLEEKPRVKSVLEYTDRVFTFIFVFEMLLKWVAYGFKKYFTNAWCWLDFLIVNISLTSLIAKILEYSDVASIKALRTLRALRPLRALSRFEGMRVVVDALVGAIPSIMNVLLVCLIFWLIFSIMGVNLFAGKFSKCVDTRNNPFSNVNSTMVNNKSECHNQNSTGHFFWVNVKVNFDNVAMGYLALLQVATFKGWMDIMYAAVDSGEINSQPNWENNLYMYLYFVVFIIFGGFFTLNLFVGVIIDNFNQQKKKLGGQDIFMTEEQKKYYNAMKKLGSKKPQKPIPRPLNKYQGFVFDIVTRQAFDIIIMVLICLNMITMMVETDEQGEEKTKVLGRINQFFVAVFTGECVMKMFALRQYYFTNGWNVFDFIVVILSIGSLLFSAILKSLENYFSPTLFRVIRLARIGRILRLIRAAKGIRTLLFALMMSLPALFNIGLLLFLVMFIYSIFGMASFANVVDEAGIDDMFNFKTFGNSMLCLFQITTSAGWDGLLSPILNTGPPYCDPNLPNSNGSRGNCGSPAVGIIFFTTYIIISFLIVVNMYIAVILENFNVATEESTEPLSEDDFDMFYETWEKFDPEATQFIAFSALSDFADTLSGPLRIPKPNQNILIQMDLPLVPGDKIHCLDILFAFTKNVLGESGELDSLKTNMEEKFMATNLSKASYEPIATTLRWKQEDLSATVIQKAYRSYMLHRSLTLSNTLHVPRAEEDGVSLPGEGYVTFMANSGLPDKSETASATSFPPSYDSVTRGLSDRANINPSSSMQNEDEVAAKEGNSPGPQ

inhibition at 2 µM (NaV1.8 [1]) [%]	Compound	Kd (NaV1.8 [2]) [nM]
~50	COc1cc(NC(=O)c2ccc(-c3ccc(Cl)cc3)o2)cc(OC)c1 [A-803467]	
	COc1c([C@H]2[C@H](C(=O)Nc3ccnc(C(N)=O)c3)O[C@@](C)(C(F)(F)F)[C@H]2C)ccc(F)c1F [compound 2, suzetrigine]	0.1
